US11999699B2, “Substituted pyrazole amides” (GRUENENTHAL GMBH, priority 2021, dated 2024)
pIC50: −log10 of the molar value.

Target: T1, human NaV1.8 (Homo sapiens, UniProt Q9Y5Y9)
T1 construct: The following NaV1.8 recombinant cell line was used for recordings: HEK-NaV1.8 (NM 006514.1); expressed in transfected cells; host or cells: HEK (recombinant cell line HEK-NaV1.8)
Assay: Electrophysiology: automated whole-cell voltage-clamp (patch clamp, Qube384) recordings of sodium currents in HEK-NaV1.8 cells
Format: cell-based
Conditions: potency data either taken from inactivated or resting state, read-out: Potency category (human NaV1.8 IC50)
In short: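 Automated whole-cell patch clamp at room temperature on HEK cells expressing human NaV1.8, with 0.3% DMSO vehicle controls. State-dependent protocol from −120 mV tested resting (P1) and half-inactivated (P2, 4 s at V1/2) channels, plus 40-pulse trains at 10 and 20 Hz. Values after ~12 min compound exposure were normalised to baseline and corrected for vehicle run-down; IC50 from a 4-parameter logistic fit, taken from inactivated or resting state.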

T1 sequence (Q9Y5Y9 whole entry): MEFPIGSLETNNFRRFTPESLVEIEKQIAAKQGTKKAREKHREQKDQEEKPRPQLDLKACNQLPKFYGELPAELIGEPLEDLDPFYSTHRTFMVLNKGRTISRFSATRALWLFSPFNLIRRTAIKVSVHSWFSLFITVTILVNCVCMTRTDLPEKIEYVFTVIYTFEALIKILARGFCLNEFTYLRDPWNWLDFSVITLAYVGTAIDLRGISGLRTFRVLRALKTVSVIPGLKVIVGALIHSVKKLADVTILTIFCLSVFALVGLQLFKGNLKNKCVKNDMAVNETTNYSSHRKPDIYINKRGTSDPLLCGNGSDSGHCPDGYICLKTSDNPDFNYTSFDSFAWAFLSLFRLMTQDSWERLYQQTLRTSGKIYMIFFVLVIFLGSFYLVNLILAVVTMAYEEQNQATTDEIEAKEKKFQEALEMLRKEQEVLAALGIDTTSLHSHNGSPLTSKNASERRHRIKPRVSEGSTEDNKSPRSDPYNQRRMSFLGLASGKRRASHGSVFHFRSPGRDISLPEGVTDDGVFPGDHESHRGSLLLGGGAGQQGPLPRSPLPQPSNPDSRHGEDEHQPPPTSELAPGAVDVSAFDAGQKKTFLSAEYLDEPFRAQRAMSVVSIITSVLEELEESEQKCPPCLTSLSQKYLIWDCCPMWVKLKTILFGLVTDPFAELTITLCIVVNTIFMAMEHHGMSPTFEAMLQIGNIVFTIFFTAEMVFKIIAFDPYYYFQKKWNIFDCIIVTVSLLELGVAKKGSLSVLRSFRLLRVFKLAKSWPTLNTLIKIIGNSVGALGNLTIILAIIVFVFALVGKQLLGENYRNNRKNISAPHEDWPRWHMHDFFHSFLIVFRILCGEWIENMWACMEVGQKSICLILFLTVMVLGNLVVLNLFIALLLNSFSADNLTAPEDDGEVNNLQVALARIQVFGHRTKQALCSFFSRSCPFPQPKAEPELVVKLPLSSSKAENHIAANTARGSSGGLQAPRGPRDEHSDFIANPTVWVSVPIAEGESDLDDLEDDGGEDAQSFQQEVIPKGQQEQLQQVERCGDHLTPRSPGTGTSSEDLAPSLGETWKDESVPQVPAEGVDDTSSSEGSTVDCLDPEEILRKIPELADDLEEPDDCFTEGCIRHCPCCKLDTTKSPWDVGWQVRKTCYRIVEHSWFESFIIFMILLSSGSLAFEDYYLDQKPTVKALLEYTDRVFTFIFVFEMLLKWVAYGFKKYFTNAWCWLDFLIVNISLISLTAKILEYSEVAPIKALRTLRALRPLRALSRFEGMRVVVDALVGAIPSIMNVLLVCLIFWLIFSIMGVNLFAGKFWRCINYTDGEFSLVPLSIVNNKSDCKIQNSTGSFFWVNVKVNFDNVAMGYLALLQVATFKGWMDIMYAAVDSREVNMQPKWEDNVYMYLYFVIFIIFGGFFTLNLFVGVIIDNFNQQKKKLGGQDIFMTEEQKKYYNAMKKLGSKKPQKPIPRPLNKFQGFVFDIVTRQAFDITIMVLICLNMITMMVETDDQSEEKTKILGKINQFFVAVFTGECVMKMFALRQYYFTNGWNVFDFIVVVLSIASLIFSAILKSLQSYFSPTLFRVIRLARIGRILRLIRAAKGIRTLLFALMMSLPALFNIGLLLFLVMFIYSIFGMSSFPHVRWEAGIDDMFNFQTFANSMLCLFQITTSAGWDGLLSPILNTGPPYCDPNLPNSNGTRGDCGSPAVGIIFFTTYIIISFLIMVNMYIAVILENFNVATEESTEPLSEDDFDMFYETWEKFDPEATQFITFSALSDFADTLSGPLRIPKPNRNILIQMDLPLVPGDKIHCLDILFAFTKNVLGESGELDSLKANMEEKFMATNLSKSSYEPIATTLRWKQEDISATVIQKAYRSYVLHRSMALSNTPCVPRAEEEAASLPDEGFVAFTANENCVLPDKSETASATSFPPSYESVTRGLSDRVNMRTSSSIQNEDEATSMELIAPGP
T1 sequence (Q9NY72 23-215 partner): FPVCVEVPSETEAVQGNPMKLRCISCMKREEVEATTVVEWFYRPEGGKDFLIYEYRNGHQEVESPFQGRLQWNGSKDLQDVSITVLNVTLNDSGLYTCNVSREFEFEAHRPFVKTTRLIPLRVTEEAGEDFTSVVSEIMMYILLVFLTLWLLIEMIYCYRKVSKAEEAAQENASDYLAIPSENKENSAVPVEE

pIC50 | Compound
≥ 7.00 | Cc1c(C(C)(F)F)nn(CC2CC(F)(F)C2)c1C(=O)Nc1cccc(S(N)(=O)=O)c1 [SC-295, 1-((3,3-difluorocyclobutyl)methyl)-3-(1,1-difluoroethyl)-4-methyl-N-(3-sulfamoylphenyl)-1H-pyrazole-5-carboxamide]
≥ 7.00 | NC(=O)c1cc(NC(=O)c2c(C(F)(F)F)c(C(F)F)nn2CC2CC(F)(F)C2)ccc1F [SC-141, N-(3-carbamoyl-4-fluorophenyl)-1-((3,3-difluorocyclobutyl)methyl)-3-(difluoromethyl)-4-(trifluoromethyl)-1H-pyrazole-5-carboxamide]
≥ 7.00 | NC(=O)c1cc(NC(=O)c2c(C(F)(F)F)c(C3CC3)nn2C[C@@H]2CO[C@H](C(F)(F)F)C2)ccn1 (single isomer, unassigned) [SC-148b]
≥ 7.00 | NC(=O)c1cc(NC(=O)c2c(C(F)(F)F)c(OC(F)F)nn2C[C@@H]2CCC(F)(F)C2)ccn1 [SC-158R]
≥ 7.00 | Cc1c(C(C)(F)F)nn(CC2(C)CC(F)(F)C2)c1C(=O)Nc1ccnc(C(N)=O)c1 [SC-208, 4-(1-((3,3-difluoro-1-methylcyclobutyl)methyl)-3-(1,1-difluoroethyl)-4-methyl-1H-pyrazole-5-carboxamido)picolinamide]
≥ 7.00 | Cc1c(OC(F)F)nn(CC2CCC(F)(F)C2)c1C(=O)Nc1ccnc(C(N)=O)c1 (stereo not shown) [SC-196, 4-(1-((3,3-difluorocyclopentyl)methyl)-3-(difluoromethoxy)-4-methyl-1H-pyrazole-5-carboxamido)picolinamide]
6.00 to 7.00 | Cc1c([C@H](C)C(F)(F)F)nn(CC2CC(F)(F)C2)c1C(=O)Nc1ccnc(C(N)=O)c1 [SC-188b]
5.00 to 6.00 | CS(=O)(=O)c1cccc(NC(=O)c2cc(C(F)(F)F)nn2CC2CCOCC2)c1 [SC-04, N-(3-methylsulfonylphenyl)-2-(oxan-4-ylmethyl)-5-(trifluoromethyl)pyrazole-3-carboxamide]
5.00 to 6.00 | CS(=O)(=O)c1cccc(NC(=O)c2c(C(F)(F)F)cnn2CC2CCC(F)(F)CC2)c1F [SC-16, 2-[(4,4-difluorocyclohexyl)methyl]-N-(2-fluoro-3-methylsulfonylphenyl)-4-(trifluoromethyl)pyrazole-3-carboxamide]
5.00 to 6.00 | CS(=O)(=O)c1cc(NC(=O)c2c(CC(F)(F)F)c(C3CC3)nn2CC2CCOCC2)ccn1 [SC-305, 3-cyclopropyl-N-(2-(methylsulfonyl)pyridin-4-yl)-1-((tetrahydro-2H-pyran-4-yl)methyl)-4-(2,2,2-trifluoroethyl)-1H-pyrazole-5-carboxamide]
6.00 to 7.00 | Cc1c(C(C)(F)F)nn(C[C@@H]2C[C@@H]2C(F)F)c1C(=O)Nc1ccnc(C(N)=O)c1 (relative stereo) [SC-206, 4-(3-(1,1-difluoroethyl)-1-((2-(difluoromethyl)cyclopropyl)methyl)-4-methyl-lH-pyrazole-5-carboxamido)picolinamide]
6.00 to 7.00 | NC(=O)c1cc(NC(=O)c2c(C(F)(F)F)c(C3CC3)nn2CC2CC2(F)F)ccn1 (single isomer, unassigned) [SC-279a]
≥ 7.00 | CS(=O)(=O)c1cc(NC(=O)c2c(C(F)(F)F)c(C3CC3)nn2CC2CCC(F)(F)C2)ccn1 (single isomer, unassigned) [SC-277b]
≥ 7.00 | NC(=O)c1cc(NC(=O)c2c(Cl)c(C(F)(F)F)nn2CC2CCC(F)(F)C2)ccn1 (single isomer, unassigned) [SC-160a]
≥ 7.00 | CCc1nn(CC2CCC(F)(F)C2)c(C(=O)Nc2ccnc(S(C)(=O)=O)c2)c1C(F)(F)F (stereo not shown) [SC-297, 1-((3,3-difluorocyclopentyl)methyl)-3-ethyl-N-(2-(methylsulfonyl)pyridin-4-yl)-4-(trifluoromethyl)-1H-pyrazole-5-carboxamide]
≥ 7.00 | CS(=O)(=O)c1cc(NC(=O)c2c(C(F)(F)F)c(C3CC3)nn2CC2CCCCO2)ccn1 (single isomer, unassigned) [SC-259a]
